Results published in ChEMBL document CHEMBL1201862, “PubChem BioAssay data set” (2004).
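Briefly, cells in 96-well plates were exposed to five compound concentrations for 48 h, and endpoints were estimated by linear interpolation. GI50 marks 50% less growth.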 The source made the active and inactive calls. Cut-off read from the data, not from the text of the source: active = GI50 up to about 1.1 µM and inactive = higher.

Experiments:
Assay in all cases: inhibition of tumour cell growth, NCI panel, 48 h
ACHN = system: ACHN
MDA-MB-435 = system: MDA-MB-435
SK-MEL-5 = system: SK-MEL-5
A498 = system: A498
HCT-116 = system: HCT-116
SN12C = system: SN12C
RPMI-8226 = system: RPMI-8226
DU-145 = system: DU-145
IGROV-1 = system: IGROV-1
SNB-75 = system: SNB-75
LOX IMVI = system: LOX IMVI
SF-295 = system: SF-295
OVCAR-8 = system: OVCAR-8
NCI-H460 = system: NCI-H460
T47D = system: T47D
NCI/ADR-RES = system: NCI/ADR-RES
HT-29 = system: HT-29
BT-549 = system: BT-549
Malme-3M = system: Malme-3M
UACC-257 = system: UACC-257

NC(=O)c1ccc(C(=O)Nc2ccc([As](=O)(O)O)cc2)cc1
GI50 (ACHN): > 100 µM (inactive)
GI50 (MDA-MB-435): > 100 µM (inactive)
GI50 (SK-MEL-5): > 100 µM (inactive)
GI50 (A498): > 100 µM (inactive)
GI50 (HCT-116): > 100 µM (inactive)
GI50 (SN12C): > 100 µM (inactive)
GI50 (RPMI-8226): > 100 µM (inactive)
GI50 (DU-145): > 100 µM (inactive)
GI50 (IGROV-1): > 100 µM (inactive)
GI50 (SNB-75): > 100 µM (inactive)
GI50 (LOX IMVI): > 100 µM (inactive)
GI50 (SF-295): > 100 µM (inactive)
GI50 (OVCAR-8): > 100 µM (inactive)
GI50 (NCI-H460): > 100 µM (inactive)
GI50 (T47D): > 100 µM (inactive)
GI50 (NCI/ADR-RES): > 100 µM (inactive)
GI50 (HT-29): > 100 µM (inactive)
GI50 (BT-549): > 100 µM (inactive)
GI50 (Malme-3M): > 100 µM (inactive)

CNC(=O)C1(N)c2ccccc2C=Cc2ccccc21
GI50 (ACHN): > 100 µM (inactive)
GI50 (MDA-MB-435): > 100 µM (inactive)
GI50 (SK-MEL-5): > 100 µM (inactive)
GI50 (A498): > 100 µM (inactive)
GI50 (HCT-116): > 100 µM (inactive)
GI50 (SN12C): > 100 µM (inactive)
GI50 (RPMI-8226): > 100 µM (inactive)
GI50 (DU-145): > 100 µM (inactive)
GI50 (IGROV-1): > 100 µM (inactive)
GI50 (LOX IMVI): > 100 µM (inactive)
GI50 (SF-295): > 100 µM (inactive)
GI50 (OVCAR-8): > 100 µM (inactive)
GI50 (T47D): > 100 µM (inactive)
GI50 (NCI/ADR-RES): > 100 µM (inactive)
GI50 (HT-29): > 100 µM (inactive)
GI50 (BT-549): > 100 µM (inactive)
GI50 (Malme-3M): > 100 µM (inactive)

O=C(/C=C/c1ccc(O)c(O)c1)c1cc(O)cc(O)c1
GI50 (ACHN): 14.7 µM (inactive)
GI50 (MDA-MB-435): 6.59 µM (inactive)
GI50 (SK-MEL-5): > 100 µM (inactive)
GI50 (A498): 18.9 µM (inactive)
GI50 (HCT-116): 12.8 µM (inactive)
GI50 (SN12C): 13 µM (inactive)
GI50 (RPMI-8226): 71.6 µM (inactive)
GI50 (DU-145): 18.1 µM (inactive)
GI50 (IGROV-1): 13.8 µM (inactive)
GI50 (SNB-75): 12.2 µM (inactive)
GI50 (LOX IMVI): 5.42 µM (inactive)
GI50 (SF-295): 19.7 µM (inactive)
GI50 (OVCAR-8): 14.3 µM (inactive)
GI50 (UACC-257): 10.7 µM (inactive)
GI50 (T47D): 10.5 µM (inactive)
GI50 (NCI/ADR-RES): 16.1 µM (inactive)
GI50 (HT-29): 19.4 µM (inactive)
GI50 (BT-549): 8.69 µM (inactive)
GI50 (Malme-3M): 14.4 µM (inactive)

C[N+]1(C)CC[N+](C)(C)[BH-]1C(O)O
GI50 (ACHN): > 100 µM (inactive)
GI50 (MDA-MB-435): > 100 µM (inactive)
GI50 (SK-MEL-5): > 100 µM (inactive)
GI50 (A498): > 100 µM (inactive)
GI50 (HCT-116): > 100 µM (inactive)
GI50 (SN12C): > 100 µM (inactive)
GI50 (DU-145): > 100 µM (inactive)
GI50 (IGROV-1): > 100 µM (inactive)
GI50 (SNB-75): 0.376 µM (active)
GI50 (LOX IMVI): > 100 µM (inactive)
GI50 (SF-295): > 100 µM (inactive)
GI50 (OVCAR-8): > 100 µM (inactive)
GI50 (UACC-257): > 100 µM (inactive)
GI50 (NCI-H460): > 100 µM (inactive)
GI50 (T47D): > 100 µM (inactive)
GI50 (NCI/ADR-RES): > 100 µM (inactive)
GI50 (HT-29): > 100 µM (inactive)
GI50 (BT-549): > 100 µM (inactive)

Cc1ccc2c(c1)-c1nc(N)c(C#N)c(-c3ccc(Cl)cc3)c1CCS2(=O)=O
GI50 (ACHN): 44.6 µM (inactive)
GI50 (MDA-MB-435): 31.3 µM (inactive)
GI50 (SK-MEL-5): 18.2 µM (inactive)
GI50 (A498): 24.6 µM (inactive)
GI50 (HCT-116): 33 µM (inactive)
GI50 (SN12C): 55.7 µM (inactive)
GI50 (DU-145): 53.8 µM (inactive)
GI50 (IGROV-1): 43.1 µM (inactive)
GI50 (SNB-75): 49 µM (inactive)
GI50 (LOX IMVI): 35.8 µM (inactive)
GI50 (OVCAR-8): 32 µM (inactive)
GI50 (UACC-257): 45.6 µM (inactive)
GI50 (NCI-H460): 35.2 µM (inactive)
GI50 (T47D): 33.2 µM (inactive)
GI50 (NCI/ADR-RES): 36.2 µM (inactive)
GI50 (HT-29): 21.4 µM (inactive)
GI50 (BT-549): 49 µM (inactive)
GI50 (Malme-3M): 44.6 µM (inactive)

N#Cc1c(C#N)c(-c2ccco2)n(-c2ccccc2)c1N
GI50 (ACHN): > 100 µM (inactive)
GI50 (MDA-MB-435): > 100 µM (inactive)
GI50 (SK-MEL-5): > 100 µM (inactive)
GI50 (A498): > 100 µM (inactive)
GI50 (HCT-116): > 100 µM (inactive)
GI50 (SN12C): > 100 µM (inactive)
GI50 (RPMI-8226): > 100 µM (inactive)
GI50 (DU-145): > 100 µM (inactive)
GI50 (IGROV-1): > 100 µM (inactive)
GI50 (SNB-75): 26.5 µM (inactive)
GI50 (LOX IMVI): > 100 µM (inactive)
GI50 (SF-295): > 100 µM (inactive)
GI50 (OVCAR-8): 22.6 µM (inactive)
GI50 (UACC-257): > 100 µM (inactive)
GI50 (T47D): 11.7 µM (inactive)
GI50 (NCI/ADR-RES): 31.8 µM (inactive)
GI50 (HT-29): > 100 µM (inactive)
GI50 (BT-549): 40.1 µM (inactive)
GI50 (Malme-3M): > 100 µM (inactive)

NC1=CN(Cc2ccccc2)C2=N/C(=C\c3ccco3)C(=O)N12
GI50 (ACHN): > 100 µM (inactive)
GI50 (MDA-MB-435): > 100 µM (inactive)
GI50 (SK-MEL-5): > 100 µM (inactive)
GI50 (A498): > 100 µM (inactive)
GI50 (HCT-116): > 100 µM (inactive)
GI50 (SN12C): > 100 µM (inactive)
GI50 (DU-145): > 100 µM (inactive)
GI50 (IGROV-1): > 100 µM (inactive)
GI50 (SNB-75): > 100 µM (inactive)
GI50 (LOX IMVI): > 100 µM (inactive)
GI50 (SF-295): > 100 µM (inactive)
GI50 (OVCAR-8): > 100 µM (inactive)
GI50 (UACC-257): > 100 µM (inactive)
GI50 (NCI-H460): > 100 µM (inactive)
GI50 (T47D): > 100 µM (inactive)
GI50 (NCI/ADR-RES): > 100 µM (inactive)
GI50 (HT-29): > 100 µM (inactive)
GI50 (BT-549): > 100 µM (inactive)
GI50 (Malme-3M): > 100 µM (inactive)

N#CCCN(CCC#N)c1ccc(C(/N=N/c2ccccc2)=N\c2ccccc2)cc1
GI50 (ACHN): > 100 µM (inactive)
GI50 (MDA-MB-435): > 100 µM (inactive)
GI50 (SK-MEL-5): > 100 µM (inactive)
GI50 (A498): > 100 µM (inactive)
GI50 (HCT-116): > 100 µM (inactive)
GI50 (SN12C): > 100 µM (inactive)
GI50 (RPMI-8226): > 100 µM (inactive)
GI50 (DU-145): > 100 µM (inactive)
GI50 (IGROV-1): > 100 µM (inactive)
GI50 (SNB-75): > 100 µM (inactive)
GI50 (SF-295): > 100 µM (inactive)
GI50 (OVCAR-8): > 100 µM (inactive)
GI50 (UACC-257): > 100 µM (inactive)
GI50 (NCI-H460): > 100 µM (inactive)
GI50 (T47D): > 100 µM (inactive)
GI50 (NCI/ADR-RES): > 100 µM (inactive)
GI50 (HT-29): > 100 µM (inactive)
GI50 (BT-549): 13 µM (inactive)
